From patent publication US10479780B2, “Aminopyrazole derivatives” (Chugai Seiyaku Kabushiki Kaisha, priority 2015, dated 2019)

Experiments:
Format in all cases: biochemical
human Src enzyme = biological target: T1, human Src enzyme (Homo sapiens, UniProt P12931); experiment: Src enzyme inhibitory activity (time-resolved fluorometry, biotinylated peptide phosphorylation); details: biotinylated peptide phosphorylation, read-out: SRC_IC50
T1 construct: purchased Carna Biosciences, Inc. 08-173
How it was run: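 Compounds were tested for blocking tyrosine phosphorylation of a biotinylated peptide substrate by recombinant human Src. Phosphorylated product was quantified by time-resolved fluorometry using europium cryptate and XL665 conjugates, and IC50 was calculated against the compound-free control.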

human Lck enzyme = biological target: T2, human Lck enzyme (Homo sapiens, UniProt P06239); experiment: Lck enzyme inhibitory activity (time-resolved fluorometry, biotinylated peptide phosphorylation); details: biotinylated peptide phosphorylation, read-out: LCK_IC50
T2 construct: purchased Carna Biosciences, Inc. 08-170
How it was run: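 Readout pairs a europium cryptate-labelled anti-phosphotyrosine antibody with XL665-streptavidin, measured by time-resolved fluorescence. IC50 derived from percent inhibition against untreated controls.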

human Yes1 enzyme = biological target: T3, human Yes1 enzyme (Homo sapiens, UniProt P07947); experiment: Yes1 enzyme inhibitory activity (time-resolved fluorometry, biotinylated peptide phosphorylation); details: biotinylated peptide phosphorylation, read-out: YES_IC50
T3 construct: made in house
How it was run: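 Inhibition was expressed against a compound-free control to give IC50, using TR-FRET read-out (Eu-cryptate anti-pTyr antibody, streptavidin-XL665).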

T2 sequence (P06239 whole entry): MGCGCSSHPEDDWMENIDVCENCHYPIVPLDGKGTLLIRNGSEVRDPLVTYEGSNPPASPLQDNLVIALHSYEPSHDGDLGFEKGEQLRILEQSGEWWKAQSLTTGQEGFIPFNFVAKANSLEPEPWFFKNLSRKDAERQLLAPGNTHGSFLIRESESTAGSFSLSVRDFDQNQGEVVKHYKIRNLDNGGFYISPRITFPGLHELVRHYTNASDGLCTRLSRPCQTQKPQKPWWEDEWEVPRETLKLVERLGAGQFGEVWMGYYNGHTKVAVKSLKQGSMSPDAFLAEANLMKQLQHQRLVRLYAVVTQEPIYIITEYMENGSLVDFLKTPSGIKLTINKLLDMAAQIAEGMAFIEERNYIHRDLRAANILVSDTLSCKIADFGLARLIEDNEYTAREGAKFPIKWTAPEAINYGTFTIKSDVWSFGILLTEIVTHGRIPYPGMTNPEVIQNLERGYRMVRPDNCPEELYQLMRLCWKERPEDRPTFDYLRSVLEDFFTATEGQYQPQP
T3 sequence (P07947 whole entry): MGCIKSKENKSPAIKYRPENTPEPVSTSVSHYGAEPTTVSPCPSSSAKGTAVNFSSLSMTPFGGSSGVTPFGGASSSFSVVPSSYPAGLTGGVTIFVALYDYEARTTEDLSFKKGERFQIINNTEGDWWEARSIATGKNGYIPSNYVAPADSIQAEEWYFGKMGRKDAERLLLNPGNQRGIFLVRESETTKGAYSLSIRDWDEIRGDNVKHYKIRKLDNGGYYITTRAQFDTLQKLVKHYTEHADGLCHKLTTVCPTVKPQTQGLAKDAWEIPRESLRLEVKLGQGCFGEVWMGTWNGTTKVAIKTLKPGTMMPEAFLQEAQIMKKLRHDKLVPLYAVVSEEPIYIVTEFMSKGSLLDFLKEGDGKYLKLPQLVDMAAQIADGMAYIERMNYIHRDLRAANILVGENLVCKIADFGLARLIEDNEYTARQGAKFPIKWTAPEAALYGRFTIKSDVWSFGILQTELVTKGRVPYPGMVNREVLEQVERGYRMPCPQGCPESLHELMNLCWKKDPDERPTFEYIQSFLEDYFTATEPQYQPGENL
T1 sequence (P12931 whole entry): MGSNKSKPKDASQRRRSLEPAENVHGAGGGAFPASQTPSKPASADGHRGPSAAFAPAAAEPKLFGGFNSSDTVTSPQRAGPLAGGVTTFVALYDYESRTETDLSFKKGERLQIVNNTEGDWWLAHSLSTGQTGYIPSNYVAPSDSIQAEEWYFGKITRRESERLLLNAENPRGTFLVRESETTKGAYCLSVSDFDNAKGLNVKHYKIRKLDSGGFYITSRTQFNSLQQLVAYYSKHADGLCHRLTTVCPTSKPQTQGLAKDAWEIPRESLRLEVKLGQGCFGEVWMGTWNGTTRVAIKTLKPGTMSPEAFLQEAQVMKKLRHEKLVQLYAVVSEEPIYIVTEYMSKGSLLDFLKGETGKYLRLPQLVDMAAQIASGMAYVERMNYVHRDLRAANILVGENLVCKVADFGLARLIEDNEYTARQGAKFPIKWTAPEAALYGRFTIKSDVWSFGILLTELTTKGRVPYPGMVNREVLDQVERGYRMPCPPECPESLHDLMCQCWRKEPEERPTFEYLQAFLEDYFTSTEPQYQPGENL

Compound | IC50 (human Src enzyme) [nM] | IC50 (human Lck enzyme) [nM] | IC50 (human Yes1 enzyme) [nM]
Cc1cc2cc(C(=O)c3cnn(-c4cnc(Oc5c(F)cccc5F)cc4C)c3N)[nH]c2cc1NS(=O)(=O)c1cccc(C#N)c1 [Example 5-1-555, N-[2-[5-amino-1-[6-(2,6-difluorophenoxy)-4-methylpyridin-3-yl]pyrazole-4-carbonyl]-5-methyl-1H-indol-6-yl]-3-cyanobenzenesulfonamide] | 1200 | 150 | 14
Cc1cc(Oc2ccccc2F)ncc1-n1ncc(C(=O)c2cc3cc(F)c(NS(=O)(=O)c4cccc(C#N)c4)cc3[nH]2)c1N [Example 5-1-556, N-[2-[5-amino-1-[6-(2-fluorophenoxy)-4-methylpyridin-3-yl]pyrazole-4-carbonyl]-5-fluoro-1H-indol-6-yl]-3-cyanobenzenesulfonamide] | 1000 | 150 | 8.8
Cc1cc2cc(C(=O)c3cnn(-c4cnc(Oc5c(F)cccc5F)cc4C)c3N)[nH]c2cc1NS(=O)(=O)c1cccc(Cl)c1 [Example 5-1-557, N-[2-[5-amino-1-[6-(2,6-difluorophenoxy)-4-methylpyridin-3-yl]pyrazole-4-carbonyl]-5-methyl-1H-indol-6-yl]-3-chlorobenzenesulfonamide] | 1500 | 320 | 19
Cc1cc(Oc2ccccc2F)ccc1-n1ncc(C(=O)c2cc3cc(F)c(NS(=O)(=O)c4cccc(Cl)c4)cc3[nH]2)c1N [Example 5-1-558, N-[2-[5-amino-1-[4-(2-fluorophenoxy)-2-methylphenyl]pyrazole-4-carbonyl]-5-fluoro-1H-indol-6-yl]-3-chlorobenzenesulfonamide] | 1500 | 230 | 4.9
Cc1cc(Oc2c(F)cccc2F)ncc1-n1ncc(C(=O)c2cc3cc(F)c(NS(=O)(=O)c4cccc(Cl)c4)cc3[nH]2)c1N [Example 5-1-559, N-[2-[5-amino-1-[6-(2,6-difluorophenoxy)-4-methylpyridin-3-yl]pyrazole-4-carbonyl]-5-fluoro-1H-indol-6-yl]-3-chlorobenzenesulfonamide] | 2400 | 810 | 17
Cc1cc(Oc2ccccc2F)ncc1-n1ncc(C(=O)c2cc3cc(F)c(NS(=O)(=O)c4cccc(Cl)c4)cc3[nH]2)c1N [Example 5-1-560, N-[2-[5-amino-1-[6-(2-fluorophenoxy)-4-methylpyridin-3-yl]pyrazole-4-carbonyl]-5-fluoro-1H-indol-6-yl]-3-chlorobenzenesulfonamide] | 2400 | 690 | 16
Cc1cc2cc(C(=O)c3cnn(-c4cnc(Oc5c(F)cccc5F)cc4C)c3N)[nH]c2cc1NS(=O)(=O)c1cc(F)cc(F)c1 [Example 5-1-561, N-[2-[5-amino-1-[6-(2,6-difluorophenoxy)-4-methylpyridin-3-yl]pyrazole-4-carbonyl]-5-methyl-1H-indol-6-yl]-3,5-difiuorobenzenesulfonamide] | 940 | 270 | 17
Cc1cc(Oc2ccccc2F)ccc1-n1ncc(C(=O)c2cc3cc(F)c(NS(=O)(=O)c4cc(F)cc(F)c4)cc3[nH]2)c1N [Example 5-1-562, N-[2-[5-amino-1-[4-(2-fluorophenoxy)-2-methylphenyl]pyrazole-4-carbonyl]-5-fluoro-1H-indol-6-yl]-3,5-difluorobenzenesulfonamide] | 830 | 180 | 5.3
COc1ccnc(S(=O)(=O)Nc2cc3[nH]c(C(=O)c4cnn(-c5cnc(Oc6c(F)cccc6F)cc5C)c4N)cc3cc2OCC(F)F)c1 [Example 5-1-569, N-[2-[5-amino-1-[6-(2,6-difluorophenoxy)-4-methylpyridin-3-yl]pyrazole-4-carbonyl]-5-(2,2-difluoroethoxy)-1H-indol-6-yl]-4-methoxypyridine-2-sulfonamide] | 230 | 22 | 4.1
Cc1cc(Oc2c(F)cccc2F)ncc1-n1ncc(C(=O)c2cc3cc(OCC(F)F)c(NS(=O)(=O)c4cccc(F)n4)cc3[nH]2)c1N [Example 5-1-570, N-[2-[5-amino-1-[6-(2,6-difluorophenoxy)-4-methylpyridin-3-yl]pyrazole-4-carbonyl]-5-(2,2-difluoroethoxy)-1H-indol-6-yl]-6-fluoropyridine-2-sulfonamide] | 410 | 9.6 | 2.1
Cc1cnc(F)c(S(=O)(=O)Nc2cc3[nH]c(C(=O)c4cnn(-c5cnc(Oc6c(F)cccc6F)cc5C)c4N)cc3cc2OCC(F)F)c1 [Example 5-1-571, N-[2-[5-amino-1-[6-(2,6-difluorophenoxy)-4-methylpyridin-3-yl]pyrazole-4-carbonyl]-5-(2,2-difluoroethoxy)-1H-indol-6-yl]-2-fluoro-5-methylpyridine-3-sulfonamide] | 540 | 30 | 2.2
Cc1cc(Oc2c(F)cccc2F)ncc1-n1ncc(C(=O)c2cc3cc(OCC(F)F)c(NS(=O)(=O)c4cccc(Cl)n4)cc3[nH]2)c1N [Example 5-1-572, N-[2-[5-amino-1-[6-(2,6-difluorophenoxy)-4-methylpyridin-3-yl]pyrazole-4-carbonyl]-5-(2,2-difluoroethoxy)-1H-indol-6-yl]-6-chloropyridine-2-sulfonamide] | 690 | 21 | 3.5
Cc1cccc(S(=O)(=O)Nc2cc3[nH]c(C(=O)c4cnn(-c5cnc(Oc6c(F)cccc6F)cc5C)c4N)cc3cc2OCC(F)F)n1 [Example 5-1-573, N-[2-[5-amino-1-[6-(2,6-difluorophenoxy)-4-methylpyridin-3-yl]pyrazole-4-carbonyl]-5-(2,2-difluoroethoxy)-1H-indol-6-yl]-6-methylpyridine-2-sulfonamide] | 440 | 14 | 2.9
Cc1cc(Oc2c(F)cccc2F)ncc1-n1ncc(C(=O)c2cc3cc(OCC(F)F)c(NS(=O)(=O)c4cccc(C#N)n4)cc3[nH]2)c1N [Example 5-1-574, N-[2-[5-amino-1-[6-(2,6-difluorophenoxy)-4-methylpyridin-3-yl]pyrazole-4-carbonyl]-5-(2,2-difluoroethoxy)-1H-indol-6-yl]-6-cyanopyridine-2-sulfonamide] | 540 | 13 | 2.8

Results, then the compound that gave them:

IC50 (human Src enzyme) [nM] | IC50 (human Lck enzyme) [nM] | IC50 (human Yes1 enzyme) [nM] | Compound
1500 | 260 | 13 | Cc1cc(Oc2ccccc2F)ncc1-n1ncc(C(=O)c2cc3cc(F)c(NS(=O)(=O)c4cccc(F)c4)cc3[nH]2)c1N [Example 5-1-554, N-[2-[5-amino-1-[6-(2-fluorophenoxy)-4-methylpyridin-3-yl]pyrazole-4-carbonyl]-5-fluoro-1H-indol-6-yl]-3-fluorobenzenesulfonamide]
1200 | 590 | 17 | Cc1cc(Oc2c(F)cccc2F)ncc1-n1ncc(C(=O)c2cc3cc(F)c(NS(=O)(=O)c4cc(F)cc(F)c4)cc3[nH]2)c1N [Example 5-1-563, N-[2-[5-amino-1-[6-(2,6-difluorophenoxy)-4-methylpyridin-3-yl]pyrazole-4-carbonyl]-5-fluoro-1H-indol-6-yl]-3,5-difluorobenzenesulfonamide]
1500 | 680 | 14 | Cc1cc(Oc2ccccc2F)ncc1-n1ncc(C(=O)c2cc3cc(F)c(NS(=O)(=O)c4cc(F)cc(F)c4)cc3[nH]2)c1N [Example 5-1-564, N-[2-[5-amino-1-[6-(2-fluorophenoxy)-4-methylpyridin-3-yl]pyrazole-4-carbonyl]-5-fluoro-1H-indol-6-yl]-3,5-difluorobenzenesulfonamide]
1100 | 720 | 19 | Cc1cc2cc(C(=O)c3cnn(-c4cnc(Oc5c(F)cccc5F)cc4C)c3N)[nH]c2cc1NS(=O)(=O)c1c(F)cc(F)cc1F [Example 5-1-565, N-[2-[5-amino-1-[6-(2,6-difluorophenoxy)-4-methylpyridin-3-yl]pyrazole-4-carbonyl]-5-methyl-1H-indol-6-yl]-2,4,6-trifluorobenzenesulfonamide]
810 | 340 | 5.6 | Cc1cc(Oc2ccccc2F)ccc1-n1ncc(C(=O)c2cc3cc(F)c(NS(=O)(=O)c4c(F)cc(F)cc4F)cc3[nH]2)c1N [Example 5-1-566, N-[2-[5-amino-1-[4-(2-fluorophenoxy)-2-methylphenyl]pyrazole-4-carbonyl]-5-fluoro-1H-indol-6-yl]-2,4,6-trifluorobenzenesulfonamide]
1200 | 610 | 19 | Cc1cc(Oc2c(F)cccc2F)ncc1-n1ncc(C(=O)c2cc3cc(F)c(NS(=O)(=O)c4c(F)cc(F)cc4F)cc3[nH]2)c1N [Example 5-1-567, N-[2-[5-amino-1-[6-(2,6-difluorophenoxy)-4-methylpyridin-3-yl]pyrazole-4-carbonyl]-5-fluoro-1H-indol-6-yl]-2,4,6-trifluorobenzenesulfonamide]
1300 | 750 | 17 | Cc1cc(Oc2ccccc2F)ncc1-n1ncc(C(=O)c2cc3cc(F)c(NS(=O)(=O)c4c(F)cc(F)cc4F)cc3[nH]2)c1N [Example 5-1-568, N-[2-[5-amino-1-[6-(2-fluorophenoxy)-4-methylpyridin-3-yl]pyrazole-4-carbonyl]-5-fluoro-1H-indol-6-yl]-2,4,6-trifluorobenzenesulfonamide]
